Measured values taken from patent publication US20080312435A1, “Imine Compound” (TAISHO PHARMACEUTICAL CO., LTD., priority 2004, published 2008).

How the values were obtained:
human CB2 receptor [1] = molecular target: T1, human CB2 receptor (Homo sapiens, UniProt P34972); test: Human CB2 receptor binding inhibition test ([3H]CP-55,940, CHO membrane fractions); conditions: [3H]CP-55,940, membrane fractions of CHO cells stably expressing human CB2 receptor, 25° C., 2 hours; read-out: CB2 IC50 (Inhibition of binding to human CB2 receptor)
T1 construct: expressed in transfected cells
Method in brief: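 Membranes from CHO-DHFR(−) cells stably expressing human CB2 used for [3H]CP-55,940 binding; filter-bound radioactivity counted by scintillation after washes with 0.1% BSA buffer. Nonspecific binding defined with 2.0 μM CP-55,940; IC50 for inhibition of specific binding.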

human CB2 receptor [2] = molecular target: T1, human CB2 receptor; test: Test for GTPγS binding via human CB2 receptor; assay type: biochemical; conditions: human CB2 receptor CHO membrane fractions; read-out: EC50 value (effective concentration exhibiting 50% activity), GTPγS binding
Method: Test for GTPγS Binding Via Human CB2 Receptor
The CHO cells capable of stably expressing the human CB2 receptor were prepared in the same manner as in Experimental Example 1.

[3] = tested on: Jcl: ICR-series male mice; test: Writhing test with acetic acid in mouse; assay type: in vivo; conditions: orally administered 30 mg/kg, acetic acid i.p. one hour after administration
Method: Writhing Test with Acetic Acid in Mouse
This test was performed in accordance with the method of Futaki N et al. (Gen Pharmacol. 24(1):105-110 (1993). A test compound suspended in a 5% gum Arabic solution was orally administered to Jcl: ICR-series male mice (5 weeks old). One hour after the administration of the test compound, a 0.9% aqueous acetic acid solution was intraperitoneally administered. Five minutes after the administration, the number of abdomen stretch movements (pain-related behavior) were counted for 10 minutes. Only the 5% gum Arabic solution was orally administered to the control group. A pain-related behavior inhibition rate (%) was obtained based on the following equation.

SD:IGS-series male rats = test: Neuropathic pain test in rat (partial sciatic nerve clipping, von Frey filament); assay type: in vivo; conditions: oral administration 3, 10 and 30 mg/kg, one hour after administration, FIG. 1
Method: Neuropathic Pain Test in Rat
Using SD:IGS-series male rats (5 weeks old), neuropathic pain model were prepared by partially clipping the sciatic nerve of the femoral region in accordance with the method of Seltzer et al. (SeltzerZ; Pain. 43(2):205-218 (1990)). When the plantar surface of the paw on the affected side was stimulated by touching with a von Frey filament(s) (nylon fiber for use in a touch test: North Coast Medical, Inc.), the pain threshold (load (g) applied to the filament when an animal responds to touch stimulation) was measured. The test compound was suspended in a 5% gum Arabic solution and administered in a dose of 0 mg/kg, 3 mg/kg, 10 mg/kg and 30 mg/kg. One hour after the administration, pain threshold (g) was measured.

Balb/c male mice = test: Test for edema on ear in mouse (PMA-induced); assay type: in vivo; conditions: 1 mg per murine ear, PMA 0.8 μg, measured five hours later
Method: Test for Edema on Ear in Mouse
Using Balb/c male mice (5 weeks old), a test compound dissolved in acetone was applied in an amount of 20 μL to the inside the ear. Ten minutes after the application of the test compound, an acetone solution (20 μL) containing 0.8 μg of PMA (phorbol 12-myristate 13-acetate) was applied. Five hours later, the thickness (hyperplasia) of the ear was measured by a dial sickness gauge. Acetone alone was applied to the control group. The inhibition rate (%) of edema on the ear was calculated based on the following equation.

human CB1 receptor [4] = molecular target: T2, human CB1 receptor (Homo sapiens, UniProt P21554); test: Human CB1 receptor binding inhibition test; conditions: CHO-DHFR(−) cells stably expressing human CB1 receptor, same manner as Experimental Example 1
T2 construct: expressed in transfected cells
Method: Human CB1 Receptor Binding Inhibition Test
The CHO-DHFR(−) cells capable of stably expressing a CB1 receptor were prepared in the same manner as in Experimental Example 1. The binding test to the human CB1 receptor was performed to obtain 50% inhibitory concentration (IC50 value) of a test compound.

human CB1 receptor [5] = molecular target: T2, human CB1 receptor; test: Test for GTPγS binding via human CB1 receptor; assay type: biochemical; conditions: human CB1 receptor CHO membrane fractions; maximum activity of each compound regarded as 100%; read-out: EC50 value (effective concentration exhibiting 50% activity), [35S]GTPγS binding
Method: Test for GTPγS Binding Via Human CB1 Receptor
CHO cells capable of stably expressing the human CB1 receptor were prepared in the same manner as in Experimental Example 2. The membrane fractions thereof were incubated together with a test compound in an assay buffer [50 mM Tris-HCl (pH 7.4), 2.5 mM EDTA, 5 mM MgCl2, 3 μM GDP (manufactured by SIGMA), 30 μg/ml Saponin (manufactured by SIGMA)] containing 0.2% bovine serum albumin at 30° C. for 30 minutes. Thereafter, 0.1 nM [^35S]GTPγS (manufactured by Perkin Elmer) was added to the buffer, incubation was performed at 30° C. for 30 minutes. The resultant solution was filtrated by a glass filter GF/C and washed. Thereafter, radioactivity on the glass filter was measured by a liquid scintillation counter. The nonspecific binding was measured […].

T2 sequence (P21554 whole entry): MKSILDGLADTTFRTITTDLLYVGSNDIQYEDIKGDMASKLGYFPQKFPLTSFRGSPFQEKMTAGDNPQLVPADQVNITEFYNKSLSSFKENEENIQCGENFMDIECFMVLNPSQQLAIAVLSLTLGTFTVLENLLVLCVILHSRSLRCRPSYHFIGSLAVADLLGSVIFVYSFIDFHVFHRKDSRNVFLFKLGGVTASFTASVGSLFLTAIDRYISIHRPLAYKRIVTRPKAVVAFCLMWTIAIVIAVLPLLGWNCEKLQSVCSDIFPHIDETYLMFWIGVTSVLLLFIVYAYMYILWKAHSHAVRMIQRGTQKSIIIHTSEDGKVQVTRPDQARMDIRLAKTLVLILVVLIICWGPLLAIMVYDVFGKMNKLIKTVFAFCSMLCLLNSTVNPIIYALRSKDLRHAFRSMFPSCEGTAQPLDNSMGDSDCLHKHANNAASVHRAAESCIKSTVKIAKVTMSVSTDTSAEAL
T1 sequence (P34972 whole entry): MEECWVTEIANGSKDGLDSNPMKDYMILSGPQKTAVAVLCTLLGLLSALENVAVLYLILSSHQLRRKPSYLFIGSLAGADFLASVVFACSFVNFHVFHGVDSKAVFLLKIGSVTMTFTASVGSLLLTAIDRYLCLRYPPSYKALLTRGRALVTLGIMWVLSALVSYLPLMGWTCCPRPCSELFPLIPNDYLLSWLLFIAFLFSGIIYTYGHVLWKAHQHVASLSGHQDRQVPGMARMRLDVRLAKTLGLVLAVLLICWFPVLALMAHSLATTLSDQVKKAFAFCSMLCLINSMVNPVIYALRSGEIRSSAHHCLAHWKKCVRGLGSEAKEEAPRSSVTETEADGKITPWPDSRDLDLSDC

Row | SMILES | IC50 (human CB2 receptor [1]) [nM] | EC50 (human CB2 receptor [2]) [nM] | melting point [°C] | pain-related behavior inhibition rate [3] [%] | pain threshold (SD:IGS-series male rats) | inhibition rate of edema on the ear (Balb/c male mice) [%] | IC50 (human CB1 receptor [4]) [nM] | EC50 (human CB1 receptor [5]) [nM]
1 | O=C(/N=c1\ccccn1CC1CC1)c1cccc(C(F)(F)F)c1F [compound 9] | 11.3 | 23.7 | 58.5 to 59 | – | – | – | – | –
2 | COc1ccc(C(F)(F)F)cc1C(=O)/N=c1\cc(C(C)(C)C)sn1CC1CC1 [compound 59] | 7.2 | – | 95 to 97 | 44.8 | – | – | – | –
3 | Cc1c(C(C)(C)C)s/c(=N\C(=O)c2cccc(C(F)(F)F)c2)n1CC1CC1 [compound 184] | 12 | 9.8 | – | – | increased pain threshold in a dose depending manner | 65 | – | –
4 | Cc1cccc(C(=O)/N=c2\sc(C(C)(C)C)c(C)n2CC2CC2)c1Br [compound 247] | 0.3 | – | 142 to 144 | 93.0 | – | – | 3 | 33
5 | Cc1cccc(C(=O)/N=c2\sc(C(C)(C)C)c(C)n2CC2CC2)c1I [compound 249] | 0.4 | – | 149 to 151 | – | – | – | 2 | 19
6 | COc1ccc(C(F)(F)F)cc1C(=O)/N=c1\sc(C(C)(C)C)c(C)n1CC1CC1 [compound 267] | 1.1 | 0.4 | 175 to 177 | 59.9 | – | 84 | – | –
7 | Cc1c(C(C)(C)C)s/c(=N\S(=O)(=O)c2ccccc2C(F)(F)F)n1CC1CC1 [compound 411] | 8.7 | – | – | 49.0 | – | – | – | –
8 | Cn1c(C(C)(C)C)c/c(=N\C(=O)c2cccc(C(F)(F)F)c2F)n1CC1CC1 [compound 474, N-(5-t-butyl-2-cyclopropylmethyl-1,2-dihydro-1-methylpyrazol-3-ylidene)-2-fluoro-3-(trifluoromethyl)benzamide] | 4.9 | 2.3 | – | 61.9 | – | 37 | – | –
9 | CCOCCn1/c(=N/C(=O)c2cccc(Cl)c2C)cc(C(C)(C)C)n1C [compound 490] | 10 | – | 127 to 128 | – | – | – | 291 | –
10 | CCOCCn1/c(=N/C(=O)c2cccc(Br)c2C)cc(C(C)(C)C)n1C [compound 491] | 9.3 | – | 125 to 126 | – | – | – | 172 | –
11 | CC(C)(C)c1nn(CC2CC2)/c(=N/C(=O)c2nccc3ccccc23)s1 [compound 510] | 13.2 | – | 89 to 90 | 19.6 | – | – | – | –
